Patent publication US12180193B2, “Accelerating fibrosarcoma protein degrading compounds and associated methods of use” (Arvinas Operations, Inc., priority 2020, dated 2024)

How the values were obtained:
BRAF V600E = target: T1, BRAF V600E (Homo sapiens, UniProt P15056, V600E); assay: Cellular assay of target protein degradation, T-Rex 293 cells stably transfected with HA-BRAF_V600E (HA immunofluorescence, high content imaging); assay type: cell-based; conditions: T-Rex 293 HA-BRAF V600E; for DC50: half maximal degradation, read-out: BRaf V600E DC50; for Dmax: maximum degradation observed
T1 construct: expressed in transfected cells
Experimental: Protocol for a cellular assay of target protein degradation (T-Rex 293 cells). T-Rex 293 cells were purchased from Invitrogen (#R71007), and stably transfected with a pcDNA4/TO_HA-BRAF_V600E construct, using 400 ug Zeocin for selection. V600e cells are plated in Dulbecco's Modified Eagle Medium (DMEM; Gibco #11965118) containing 10% fetal bovine serum (FBS; Gibco #16000044) and 1 ng/mL doxycycline (Selleckchem #4163) at a density of 5,000 cells/well in 50 μl on poly-D-lysine (PDL) coated, black clear bottom 96-well plates (Corning #354640) and incubated for 24 hours at 37° C. with 5% C02. The following day 50 ul of tested compound was added at 2x concentration in DMEM with a final concentration ranging from 1 μM to 0.1 nM in 0.1% dimethylsulfoxide (DMSO), and incubated for 24 hours at 37° C. with 5% CO2. At the end of the experimental treatment, the media was flicked off and cells washed once with phosphate-buffered saline (PBS)++ (PBS with CaCl and MgCl) and gently replacing with 200 μl PBS++ per well. The PBS++ was removed and 50 uL 4% paraformaldehyde (PFA; EMS #15710) in PBS++ was added, and incubate at room temperature for 15 minutes. Cells were washed once with PBS++ and 50 uL 0.1% Triton X-100 (Fisher #BP151-500) in PBS++ was added. Plate was incubate for 5 minutes at room temperature. Cells were was once with PBS++. Cells were blocked with 100 uL Licor blocking buffer (Licor #927-50000) for 1 hour at room temperature. Next, 50 uL of HA antibody (CST #3724) at 1:1000 in Licor blocking buffer was added, and the plate incubate overnight at 4° C. The plates were parafilmed to prevent evaporation. Plate was washed three times with 200 uL PBS++. Fifty microliters of HCS secondary antibody solution [1:1000 Hoechst (Invitrogen #H3570), 1:1000 phalloidin (Invitrogen #A22287) and 1:5000 Alexa fluor (Invitrogen #A11008)] was added and incubated for 1 hour. Plate was wash three times with 200 uL PBS++, and imaged on a high content reader (ImageXpress Micro XLS, Molecular Devices).
(§1) The concentration of exemplary compound that leads to half maximal degradation (DC50) as well as the maximum degradation observed (Dmax, conventionally expressed as a percentage of control), which are below in Table 2 for the exemplary compounds of Table 1.

BRAF G466V = target: T2, BRAF G466V (Homo sapiens, UniProt P15056, G466V); assay: Cellular assay of target protein degradation, T-Rex 293 cells stably transfected with HA-BRAF G466V (HA immunofluorescence, high content imaging); assay type: cell-based; conditions: T-Rex 293 HA-BRAF G466V; for DC50: half maximal degradation, read-out: BRaf G466V DC50; for Dmax: maximum degradation observed
T2 construct: expressed in transfected cells
Experimental: Protocol for a cellular assay of target protein degradation (T-Rex 293 cells). T-Rex 293 cells were purchased from Invitrogen (#R71007), and stably transfected with a pcDNA4/TO_HA-BRAF G466V construct, using 400 ug Zeocin for selection. G466V cells are plated in Dulbecco's Modified Eagle Medium (DMEM; Gibco #11965118) containing 10% fetal bovine serum (FBS; Gibco #16000044) and 0.75 ng/mL doxycycline (Selleckchem #4163) at a density of 5,000 cells/well in 50 μl on poly-D-lysine (PDL) coated, black clear bottom 96-well plates (Corning #354640) and incubated for 24 hours at 37° C. with 5% CO2. The following day 50 ul of tested compound was added at 2x concentration in DMEM with a final concentration ranging from 30 nM to 3 pM in 0.1% dimethylsulfoxide (DMSO), and incubated for 24 hours at 37° C. with 5% CO2. At the end of the experimental treatment, the media was flicked off and cells washed once with phosphate-buffered saline (PBS)++ (PBS with CaCl and MgCl) and gently replacing with 200 μl PBS++ per well. The PBS++ was removed and 50 uL 4% paraformaldehyde (PFA; EMS #15710) in PBS++ was added, and incubate at room temperature for 15 minutes. Cells were washed once with PBS++ and 50 uL 0.1% Triton X-100 (Fisher #BP151-500) in PBS++ was added. Plate was incubate for 5 minutes at room temperature. Cells were was once with PBS++. Cells were blocked with 100 uL Licor blocking buffer (Licor #927-50000) for 1 hour at room temperature. Next, 50 uL of HA antibody (CST #3724) at 1:1000 in Licor blocking buffer was added, and the plate incubate overnight at 4° C. The plates were parafilmed to prevent evaporation. Plate was washed three times with 200 uL PBS++. Fifty microliters of HCS secondary antibody solution [1:1000 Hoechst (Invitrogen #H3570), 1:1000 phalloidin (Invitrogen #A22287) and 1:5000 Alexa fluor (Invitrogen #A11008)] was added and incubated for 1 hour. Plate was wash three times with 200 uL PBS++, and imaged on a high content reader (ImageXpress Micro XLS, Molecular Devices).
as §1

T1 sequence (P15056 whole entry V600E): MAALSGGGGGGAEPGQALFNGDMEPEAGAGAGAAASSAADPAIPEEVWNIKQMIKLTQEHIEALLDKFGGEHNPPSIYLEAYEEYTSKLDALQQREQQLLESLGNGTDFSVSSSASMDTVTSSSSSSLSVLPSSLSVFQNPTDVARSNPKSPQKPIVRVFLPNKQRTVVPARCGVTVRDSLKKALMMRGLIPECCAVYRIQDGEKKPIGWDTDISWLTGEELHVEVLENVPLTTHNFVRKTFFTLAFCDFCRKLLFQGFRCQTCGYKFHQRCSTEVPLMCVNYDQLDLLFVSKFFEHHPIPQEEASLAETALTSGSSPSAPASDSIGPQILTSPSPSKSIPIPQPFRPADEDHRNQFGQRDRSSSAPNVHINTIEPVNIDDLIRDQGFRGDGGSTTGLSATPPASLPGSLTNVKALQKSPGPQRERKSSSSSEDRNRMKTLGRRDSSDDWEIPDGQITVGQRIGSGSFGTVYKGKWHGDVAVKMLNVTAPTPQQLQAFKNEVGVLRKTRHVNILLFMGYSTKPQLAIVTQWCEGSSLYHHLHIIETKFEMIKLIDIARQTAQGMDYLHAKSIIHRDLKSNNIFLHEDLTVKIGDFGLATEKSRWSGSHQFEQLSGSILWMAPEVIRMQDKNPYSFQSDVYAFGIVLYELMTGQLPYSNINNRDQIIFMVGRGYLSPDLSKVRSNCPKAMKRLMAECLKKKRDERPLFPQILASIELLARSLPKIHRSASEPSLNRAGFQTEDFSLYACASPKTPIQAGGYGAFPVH
T2 sequence (P15056 whole entry G466V): as the sequence (P15056 whole entry V600E) above, with G466V, E600V counted along it

DC50 (BRAF V600E) [µM]	Dmax (BRAF V600E) [%]	DC50 (BRAF G466V) [µM]	Dmax (BRAF G466V) [%]	Structure (SMILES)
0.005 to 0.05	< 35	0.01 to 0.03	35 to 70	O=C1CCC(N2Cc3cc(N4CCC(COCC5CCN(c6ccc(-c7cnc8[nH]cc(C(=O)c9c(F)ccc(NS(=O)(=O)N%10CC[C@@H](F)C%10)c9F)c8c7)cc6)CC5)CC4)ccc3C2=O)C(=O)N1 (stereo partly drawn) [Compound 143, (3R)-N-{3-[5-(4-{4-[({1-[2-(2,6-dioxopiperidin-3-yl)-1-oxo-2,3-dihydro-1H-isoindol-5-yl]piperidin-4-yl}methoxy)methyl]piperidin-1-yl}phenyl)-1H-pyrrolo[2,3-b]pyridine-3-carbonyl]-2,4-difluorophenyl}-3-fluoropyrrolidine-1-sulfonamide]
0.005 to 0.05	35 to 70	0.001 to 0.01	> 70	O=C1CC[C@@H](N2Cc3cc(C[C@@H](O)CN4CC5(C4)CN(c4ccc(-c6cnc7[nH]cc(C(=O)c8c(F)ccc(NS(=O)(=O)N9CC[C@@H](F)C9)c8F)c7c6)cc4)C5)ccc3C2=O)C(=O)N1 [Compound 129, (3R)-N-{3-[5-(4-{6-[(2R)-3-{2-[(3R)-2,6-dioxopiperidin-3-yl]-1-oxo-2,3-dihydro-1H-isoindol-5-yl}-2-hydroxypropyl]-2,6-diazaspiro[3.3]heptan-2-yl}phenyl)-1H-pyrrolo[2,3-b]pyridine-3-carbonyl]-2,4-difluorophenyl}-3-fluoropyrrolidine-1-sulfonamide]
> 0.5	> 70	0.01 to 0.03	35 to 70	O=C1CCC(N2Cc3cc(O[C@H]4C[C@@]5(COCCN5CC5CCN(c6ccc(-c7cnc8[nH]cc(C(=O)c9c(F)ccc(NS(=O)(=O)N%10CC[C@@H](F)C%10)c9F)c8c7)cc6)CC5)C4)ccc3C2=O)C(=O)N1 (stereo partly drawn) [Compound 13, (3R)-N-(2,4-difluoro-3-{5-[4-(4-{[(2r,4r)-2-{[2-(2,6-dioxopiperidin-3-yl)-1-oxo-2,3-dihydro-1H-isoindol-5-yl]oxy}-8-oxa-5-azaspiro[3.5]nonan-5-yl]methyl}piperidin-1-yl)phenyl]-1H-pyrrolo[2,3-b]pyridin-3-carbonyl}phenyl)-3-fluoropyrrolidine-1-sulfonamide]
> 0.5	–	> 0.03	–	O=C1CCC(N2Cc3cc(C4CCN(CCC5CN(c6ccc(-c7cnc8[nH]cc(C(=O)c9c(F)ccc(NS(=O)(=O)N%10CC[C@@H](F)C%10)c9F)c8c7)cc6)C5)CC4)ccc3C2=O)C(=O)N1 (stereo partly drawn) [Compound 218, (3R)-N-[3-(5-{4-[3-(2-{4-[2-(2,6-dioxopiperidin-3-yl)-1-oxo-2,3-dihydro-1H-isoindol-5-yl]piperidin-1-yl}ethyl)azetidin-1-yl]phenyl}-1H-pyrrolo[2,3-b]pyridine-3-carbonyl)-2,4-difluorophenyl]-3-fluoropyrrolidine-1-sulfonamide]
< 0.005	35 to 70	< 0.001	35 to 70	O=C1CC[C@H](N2Cc3cc(N4CCC(CN5CCC6(CCN(c7ccc(-c8cnc9[nH]cc(C(=O)c%10c(F)ccc(NS(=O)(=O)N%11CC[C@@H](F)C%11)c%10F)c9c8)cc7F)CC6)C5)CC4)ccc3C2=O)C(=O)N1 [Compound 258, (3R)-N-{3-[5-(4-{2-[(1-{2-[(3S)-2,6-dioxopiperidin-3-yl]-1-oxo-2,3-dihydro-1H-isoindol-5-yl}piperidin-4-yl)methyl]-2,8-diazaspiro[4.5]decan-8-yl}-3-fluorophenyl)-1H-pyrrolo[2,3-b]pyridine-3-carbonyl]-2,4-difluorophenyl}-3-fluoropyrrolidine-1-sulfonamide]
0.05 to 0.5	< 35	0.01 to 0.03	> 70	COc1cc(N2CC3(CN(CC4CCN(c5ccc(-c6cnc7[nH]cc(C(=O)c8c(F)ccc(NS(=O)(=O)N9CC[C@@H](F)C9)c8F)c7c6)cc5)CC4)C3)C2)ccc1C(=O)N[C@@H]1CCC(=O)NC1=O [Compound 344, 4-(6-{[1-(4-{3-[2,6-difluoro-3-({[(3R)-3-fluoropyrroldiin-1-yl]sulfonyl}amino)benzoyl]-1H-pyrrolo[2,3-b]pyridin-5-yl}phenyl)piperidin-4-yl]methyl}-2,6-diazaspiro[3.3]heptan-2-yl)-N-[(3R)-2,6-dioxopiperidin-3-yl]-2-methoxybenzamide]
0.005 to 0.05	35 to 70	< 0.001	> 70	CCN(C)S(=O)(=O)Nc1ccc(F)c(C(=O)c2c[nH]c3ncc(-c4ccc(N5CCC(CN6CCC(c7ccc8c(c7)CN(C7CCC(=O)NC7=O)C8=O)CC6)CC5)cc4)cc23)c1F (centres unmarked) [Compound 191, 3-(5-{1-[(1-{4-[3-(3-{[ethyl(methyl)sulfamoyl]amino}-2,6-difluorobenzoyl)-1H-pyrrolo[2,3-b]pyridin-5-yl]phenyl}piperidin-4-yl)methyl]piperidin-4-yl}-1-oxo-2,3-dihydro-1H-isoindol-2-yl)piperidine-2,6-dione]
0.005 to 0.05	< 35	0.01 to 0.03	> 70	C[C@@H]1CC[C@@H](C)N1S(=O)(=O)Nc1ccc(F)c(C(=O)c2c[nH]c3ncc(-c4ccc(N5CCC(CN6CCC(c7ccc8c(c7)CN([C@H]7CCC(=O)NC7=O)C8=O)CC6)CC5)cc4)cc23)c1F [Compound 277, (2R,5R)-N-{3-[5-(4-{4-[(4-{2-[(3S)-2,6-dioxopiperidin-3-yl]-1-oxo-2,3-dihydro-1H-isoindol-5-yl}piperidin-1-yl)methyl]piperidin-1-yl}phenyl)-1H-pyrrolo [2,3-b]pyridine-3-carbonyl]-2,4-difluorophenyl}-2,5-dimethylpyrrolidine-1-sulfonamide]
< 0.005	< 35	–	–	O=C1CCC(N2Cc3cc(N4CCC(CN5CCC6(CCN(c7ncc(-c8cnc9[nH]cc(C(=O)c%10c(F)ccc(NS(=O)(=O)N%11CC[C@@H](F)C%11)c%10F)c9c8)cn7)CC6)C5)CC4)ccc3C2=O)C(=O)N1 (stereo partly drawn) [Compound 96, (3R)-N-[3-(5-{2-[2-({1-[2-(2,6-dioxopiperidin-3-yl)-1-oxo-2,3-dihydro-1H-isoindol-5-yl]piperidin-4-yl}methyl)-2,8-diazaspiro[4.5]decan-8-yl]pyrimidin-5-yl}-1H-pyrrolo[2,3-b]pyridine-3-carbonyl)-2,4-difluorophenyl]-3-fluoropyrrolidine-1-sulfonamide]
